Assay results published in PubChem BioAssay (NCI).
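Each compound was tested at five concentrations against cells in 96-well plates for 48 hours. TGI denotes the concentration required for complete inhibition of growth.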

Legend:
Test in all cases: DTP human tumour cell line panel, 48 h
[1] = tested on: 786-0 renal
[2] = tested on: BT-549 breast
[3] = tested on: HCT-15 colon
[4] = tested on: HOP-62 NSCLC
[5] = tested on: K-562 leukemia
[6] = tested on: MOLT-4 leukemia
[7] = tested on: NCI/ADR-RES ovarian
[8] = tested on: OVCAR-8 ovarian
[9] = tested on: RXF 393 renal
[10] = tested on: SW-620 colon
[11] = tested on: SF-539 CNS

Cn1c2ccccc2n2c3ncccc3c(=NCCCC(=O)O)c(C#N)c12
TGI [1]: > 100 µM | TGI [2]: > 100 µM | TGI [3]: > 100 µM | TGI [4]: > 100 µM | TGI [5]: > 100 µM | TGI [6]: > 100 µM | TGI [7]: > 100 µM | TGI [8]: > 100 µM | TGI [9]: > 100 µM | TGI [10]: > 100 µM

CCCC(=O)NC(Nc1cc(C)ccn1)(C(=O)OCC)C(F)(F)F (stereo unspecified)
TGI [1]: > 100 µM | TGI [2]: > 100 µM | TGI [3]: > 100 µM | TGI [4]: > 100 µM | TGI [5]: > 100 µM | TGI [6]: > 100 µM | TGI [7]: > 100 µM | TGI [8]: > 100 µM | TGI [9]: > 100 µM | TGI [11]: > 100 µM | TGI [10]: > 100 µM

CC(C)(C)n1c(=O)n2n(c1=O)Cc1cccc3cccc(c13)C2
TGI [1]: 45.1 µM | TGI [2]: 95.3 µM | TGI [3]: 39.5 µM | TGI [4]: 33.2 µM | TGI [5]: 35.4 µM | TGI [6]: 93.8 µM | TGI [7]: 37.1 µM | TGI [8]: 69.9 µM | TGI [9]: 27.1 µM | TGI [11]: 36.4 µM | TGI [10]: 35.9 µM

CCN(CC)C(=O)Cn1c(-c2ccccc2)cc2ccccc21
TGI [1]: > 100 µM | TGI [2]: 94.5 µM | TGI [3]: > 100 µM | TGI [4]: > 100 µM | TGI [5]: > 100 µM | TGI [6]: 42.7 µM | TGI [7]: > 100 µM | TGI [8]: > 100 µM | TGI [9]: 97.4 µM | TGI [11]: > 100 µM | TGI [10]: > 100 µM

O=C(c1ccccc1)c1ccc(N2C(=O)/C(=C/Cc3ccco3)N=C2c2ccccc2)c(N2C(=O)/C(=C/Cc3ccco3)N=C2c2ccccc2)c1
TGI [1]: > 100 µM | TGI [2]: > 100 µM | TGI [3]: > 100 µM | TGI [4]: > 100 µM | TGI [5]: > 100 µM | TGI [6]: 56.6 µM | TGI [7]: > 100 µM | TGI [8]: > 100 µM | TGI [11]: 32.7 µM | TGI [10]: > 100 µM

C(/C=C/c1ccccc1)=Nc1ccc2c(c1)Cc1ccccc1-2
TGI [1]: > 100 µM | TGI [2]: > 100 µM | TGI [3]: > 100 µM | TGI [4]: > 100 µM | TGI [5]: > 100 µM | TGI [6]: 95 µM | TGI [7]: > 100 µM | TGI [8]: > 100 µM | TGI [9]: > 100 µM | TGI [10]: > 100 µM

Cc1c2ccnc(C(=O)NCCN(C)C)c2cc2c3cc(O)ccc3n(C)c12
TGI [1]: 3.37 µM | TGI [2]: 10.7 µM | TGI [3]: 4.39 µM | TGI [4]: 2.16 µM | TGI [5]: 2.4 µM | TGI [6]: 0.0147 µM | TGI [7]: 6.64 µM | TGI [8]: 4.06 µM | TGI [9]: 2.31 µM | TGI [11]: 1.3 µM | TGI [10]: 4.36 µM

NC(CSCc1ccc(I)cc1)C(=O)O (stereo unspecified)
TGI [1]: > 100 µM | TGI [2]: > 100 µM | TGI [3]: > 100 µM | TGI [4]: > 100 µM | TGI [5]: > 100 µM | TGI [6]: > 100 µM | TGI [7]: > 100 µM | TGI [8]: > 100 µM | TGI [9]: > 100 µM | TGI [10]: > 100 µM

c1ccc2c(c1)NCCC(=NC1CCCCC1)N2
TGI [1]: > 100 µM | TGI [2]: > 100 µM | TGI [3]: > 100 µM | TGI [4]: > 100 µM | TGI [5]: > 100 µM | TGI [6]: > 100 µM | TGI [7]: > 100 µM | TGI [8]: > 100 µM | TGI [9]: > 100 µM | TGI [10]: > 100 µM

Clc1ccc(Nc2nnc(CCCCCCCCc3nnc(Nc4ccc(Cl)cc4)o3)o2)cc1
TGI [1]: 60.1 µM | TGI [2]: > 100 µM | TGI [3]: > 100 µM | TGI [4]: > 100 µM | TGI [5]: > 100 µM | TGI [6]: > 100 µM | TGI [7]: > 100 µM | TGI [10]: > 100 µM

O=[N+]([O-])c1ccc(-c2cc(O)c3nc4ccccc4n3c2)cc1
TGI [1]: > 100 µM | TGI [2]: > 100 µM | TGI [3]: > 100 µM | TGI [4]: > 94 µM | TGI [5]: > 100 µM | TGI [6]: > 100 µM | TGI [7]: > 100 µM | TGI [8]: > 100 µM | TGI [9]: > 100 µM | TGI [11]: > 100 µM | TGI [10]: > 100 µM

O=c1[nH]nc(Cc2ccc(Cl)cc2)n1/N=C/c1ccco1
TGI [1]: > 100 µM | TGI [2]: > 100 µM | TGI [3]: > 100 µM | TGI [4]: > 100 µM | TGI [5]: > 100 µM | TGI [6]: > 100 µM | TGI [7]: > 100 µM | TGI [8]: > 100 µM | TGI [9]: 91.7 µM | TGI [11]: 90.5 µM | TGI [10]: > 100 µM

CN(C)CCCC1c2ccccc2Oc2ccc(C(F)(F)F)cc21 (stereo unspecified)
TGI [1]: 26.7 µM | TGI [2]: 28.2 µM | TGI [3]: 31.5 µM | TGI [4]: 31 µM | TGI [5]: 18.3 µM | TGI [6]: 22.7 µM | TGI [7]: 28.3 µM | TGI [8]: 31.9 µM | TGI [9]: 17.4 µM | TGI [11]: 29.5 µM | TGI [10]: 33.7 µM

O=C(c1cc2ccccc2[nH]1)N1C2CCC1CN(CCOC(c1ccc(F)cc1)c1ccc(F)cc1)CC2 (stereo unspecified)
TGI [1]: > 100 µM | TGI [2]: > 100 µM | TGI [3]: > 100 µM | TGI [4]: > 100 µM | TGI [5]: > 100 µM | TGI [6]: > 100 µM | TGI [7]: > 100 µM | TGI [8]: > 100 µM | TGI [9]: 8.41 µM | TGI [11]: > 100 µM | TGI [10]: > 100 µM

O=C1NC(=S)N/C1=C\c1cc2c(=O)c3ccccc3sc2s1
TGI [1]: > 100 µM | TGI [2]: > 100 µM | TGI [3]: > 100 µM | TGI [4]: > 100 µM | TGI [5]: > 100 µM | TGI [6]: 69.5 µM | TGI [7]: > 100 µM | TGI [8]: > 100 µM | TGI [9]: > 100 µM | TGI [10]: > 100 µM

O=c1ccn(CC2(CO)CCCC2)c(=O)[nH]1
TGI [1]: > 100 µM | TGI [2]: > 100 µM | TGI [3]: > 100 µM | TGI [4]: > 100 µM | TGI [5]: > 100 µM | TGI [6]: > 100 µM | TGI [7]: > 100 µM | TGI [8]: > 100 µM | TGI [9]: > 100 µM | TGI [11]: > 100 µM | TGI [10]: > 100 µM

COC(=O)c1c(C)cccc1C1CN=NC12Cc1ccccc1C2=O (stereo unspecified)
TGI [1]: > 100 µM | TGI [2]: > 100 µM | TGI [3]: > 100 µM | TGI [4]: > 100 µM | TGI [5]: > 100 µM | TGI [6]: > 100 µM | TGI [7]: > 100 µM | TGI [8]: > 100 µM | TGI [9]: > 100 µM | TGI [11]: > 100 µM | TGI [10]: > 100 µM

C=CCNC(=S)N=Nc1c(O)n(CN2CCOCC2)c2ccc([N+](=O)[O-])cc12
TGI [1]: > 100 µM | TGI [2]: > 100 µM | TGI [3]: > 100 µM | TGI [4]: > 100 µM | TGI [5]: > 100 µM | TGI [6]: > 100 µM | TGI [7]: > 100 µM | TGI [8]: > 100 µM | TGI [9]: > 100 µM | TGI [11]: > 100 µM | TGI [10]: > 100 µM

CCCCCC1CC=CC(=O)O1 (stereo unspecified)
TGI [1]: 15.2 µM | TGI [2]: 33.7 µM | TGI [3]: 21.9 µM | TGI [4]: 18.5 µM | TGI [5]: 42.7 µM | TGI [6]: > 100 µM | TGI [7]: 25.6 µM | TGI [8]: 22.2 µM | TGI [9]: 23.1 µM | TGI [11]: 3.83 µM | TGI [10]: 29.1 µM

O=[N+]([O-])c1ccc2nc(Cl)n[n+]([O-])c2c1
TGI [1]: 22.8 µM | TGI [2]: 29.7 µM | TGI [3]: 29.7 µM | TGI [4]: 30.9 µM | TGI [5]: 2.74 µM | TGI [6]: 3.34 µM | TGI [7]: 60.1 µM | TGI [8]: 30.7 µM | TGI [9]: 28.7 µM | TGI [11]: 25.3 µM | TGI [10]: 35.5 µM
